The values below come from paper PMC7329864, “Role of water in cyclooxygenase catalysis and design of anti-inflammatory agents targeting two sites of the enzyme” (Scientific Reports, 2020).

For assay [1], the target named is T1, COX-1 (Ovis aries, UniProt P05979).
T1 construct: purchased Cayman Chemical Co. item no; 560131
T1 sequence (P05979 25-600): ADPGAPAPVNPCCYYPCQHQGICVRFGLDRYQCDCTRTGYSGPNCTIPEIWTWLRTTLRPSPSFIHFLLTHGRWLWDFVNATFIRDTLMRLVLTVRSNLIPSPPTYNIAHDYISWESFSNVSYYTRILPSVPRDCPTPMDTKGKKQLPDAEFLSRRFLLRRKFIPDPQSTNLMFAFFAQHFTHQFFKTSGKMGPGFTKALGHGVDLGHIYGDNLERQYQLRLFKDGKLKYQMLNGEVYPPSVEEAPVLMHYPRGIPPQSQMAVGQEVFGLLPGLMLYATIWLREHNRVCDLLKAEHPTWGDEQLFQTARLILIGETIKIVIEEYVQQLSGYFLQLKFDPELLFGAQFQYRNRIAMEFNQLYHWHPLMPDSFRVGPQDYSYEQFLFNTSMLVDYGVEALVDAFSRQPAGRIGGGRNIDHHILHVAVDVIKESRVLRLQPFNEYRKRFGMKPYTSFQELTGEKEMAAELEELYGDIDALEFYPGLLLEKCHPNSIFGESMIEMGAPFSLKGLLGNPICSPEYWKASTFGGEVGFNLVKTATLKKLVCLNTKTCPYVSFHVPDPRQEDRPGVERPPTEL
The assay is described as follows: COX inhibitory enzyme immunoassay (COX-1). Format: biochemical. The protocol:
(§1) All the compounds of Fig. 9 were screened for COX-1/2 inhibitory activity in triplicate at 10^–4–10^–8 M concentration by performing enzyme immunoassays. The activity of the compounds was quantified in terms of amount of prostaglandins produced by the enzymes in the presence of different concentrations of the compound.
(§2) For studying the COX-1, COX-2 inhibitory activities of the compounds, various reagents were prepared as per the protocol of the assays. The compounds were screened in triplicate at 10^–4–10^–8 M concentration using the procedure as described in the previous report.

For assay [2], the target named is T2, wt COX-2 (Homo sapiens, UniProt P35354).
T2 construct: purchased Cayman Chemical Co. item no; 560131
T2 sequence (P35354 18-604): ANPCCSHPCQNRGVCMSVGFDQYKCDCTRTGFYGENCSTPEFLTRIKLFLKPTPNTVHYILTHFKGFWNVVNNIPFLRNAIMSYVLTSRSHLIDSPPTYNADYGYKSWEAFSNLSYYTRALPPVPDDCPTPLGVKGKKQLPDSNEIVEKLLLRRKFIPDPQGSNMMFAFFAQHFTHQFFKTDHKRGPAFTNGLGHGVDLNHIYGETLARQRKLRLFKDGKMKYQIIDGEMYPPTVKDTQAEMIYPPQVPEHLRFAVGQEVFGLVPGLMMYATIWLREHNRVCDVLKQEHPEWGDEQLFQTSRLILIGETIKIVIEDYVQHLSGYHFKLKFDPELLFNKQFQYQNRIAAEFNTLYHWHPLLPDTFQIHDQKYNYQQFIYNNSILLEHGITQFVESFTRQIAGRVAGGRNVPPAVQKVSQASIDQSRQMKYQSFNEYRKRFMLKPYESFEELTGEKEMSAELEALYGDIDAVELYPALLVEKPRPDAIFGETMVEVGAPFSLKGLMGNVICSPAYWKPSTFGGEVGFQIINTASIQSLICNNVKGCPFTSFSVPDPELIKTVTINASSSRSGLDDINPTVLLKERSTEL
The assay is described as follows: COX inhibitory enzyme immunoassay (COX-2). In kind it is biochemical. The settings on record: for IC50: enzyme immunoassay, screened at 10^–4–10^–8 M, average of 3 experiments, SD ± 0.5 µM; for SI (IC50(COX-1)/IC50 (COX-2): selectivity index COX-1/COX-2. The protocol: as §1, §2

Assay [3] concerns the target T3, COX-2 (Homo sapiens, UniProt P35354).
T3 sequence (P35354 18-604): T2 sequence (P35354 18-604)
The assay is described as follows: UV-Vis and fluorescence studies of interaction with COX-2. In kind it is binding. The settings on record: addition of COX-2 in Tris–HCl buffer pH 7.25 to solution of compound. An excerpt:
In order to support in-silico experiments, the interactions of 1, 13d and 15d with COX-2 were checked with UV–vis and fluorescence spectral techniques. […] The appearance of level-off in the visible region (500–700 nm) was attributed to the Mie scattering due to the formation of aggregates. […] Corroborating the results of molecular modelling studies, the changes in the UV–Vis spectra as well as the fluorescence spectrum of the compound on addition of COX-2 probably occurred due to the HOMO–LUMO interactions between 1 and the enzyme (Figure S26). The linear Stern–Volmer plot of decrease in fluorescence intensity at 567 nm on increasing COX-2 concentration gave Stern–Volmer constant Ksv 3.30 × 10^4 M^-1. The detection limit of the compound for COX-2 was 0.02 nM (Figure S26C,D).
In order to support in-silico experiments, the interactions of 1, 13d and 15d with COX-2 were checked with UV-vis and fluorescence spectral techniques. […] The appearance of level-off in the visible region (500-700 nm) was attributed to the Mie scattering due to the formation of aggregates. […] Corroborating the results of molecular modelling studies, the changes in the UV-Vis spectra as well as the fluorescence spectrum of the compound on addition of COX-2 probably occurred due to the HOMO-LUMO interactions between 1 and the enzyme (Figure S27). The linear Stern-Volmer plot of decrease in fluorescence intensity at 567 nm on increasing COX-2 concentration gave Stern-Volmer constant Ksv 3.30x10^4 M^-1. The detection limit of the compound for COX-2 was 0.02 nM (Figure 27C, 27D).

Setting [4] is: enzyme immunoassay, screened at 10^–4–10^–8 M, average of 3 experiments, SD ± 0.5 µM, read-out: IC50 COX-1.

The term IC50 denotes the concentration that inhibits the measured activity by half.

“Also recorded” adds a separate entry of the source. Like-named read-outs stand apart in the source and are kept apart here. Where only a bound is given, the exact number is not on record here.

As to `O=C1NC(=O)C(=Cc2cn(CCCn3c4ccccc4c(=O)c4ccccc43)c3ccccc23)C(=O)N1` [Compound 3, 5-((1-(3-(9-Oxoacridin-10(9H)-yl)propyl)-1H-indol-3-yl)methylene)pyrimidine-2,4,6 (1H, 3H, 5H)-trione], the IC50 in assay [1] is more than 100 µM. Also, in assay [2], the IC50 came out at 10 µM and the “SI (IC50(COX-1)/IC50 (COX-2)” value is more than 10.
Take `COc1cc(/C=C2\C(=O)N(CCCCCn3c4ccccc4c(=O)c4ccccc43)c3ccccc32)cc(OC)c1O` [Compound 9, (Z)-10-(5-(3-(4-Hydroxy-3,5-dimethoxybenzylidene)-2-oxoindolin-1-yl)pentyl)acridin-9(10H)-one]: the concentration for half-maximal inhibition (IC50) in assay [1] (setting [4]) turned out to be 52 µM. Moreover, in assay [2], the concentration for half-maximal inhibition (IC50) stood at 0.23 µM and the “SI (IC50(COX-1)/IC50 (COX-2)” value came to 250.
For the compound `O=c1c2ccccc2n(CCCCCCBr)c2ccccc12` [Compound 13d, 10-(6-Bromohexyl)acridin-9(10H)-one], the 50% inhibitory concentration (IC50) in assay [1] (setting [4]) is more than 100 µM. Moreover, in assay [2], the midpoint of inhibition, the IC50, lay at 48.5 µM and the “SI (IC50(COX-1)/IC50 (COX-2)” value is more than 2. For the same compound, the “decrease in fluorescence intensity (quenching) in the presence of COX-2” value in assay [3] is “Small decrease; also recorded: much less”.
On to `Cn1cc(/C=C2\C(=O)N(CCCCCCn3c4ccccc4c(=O)c4ccccc43)c3ccccc32)c2ccccc21` [Compound 5, (Z)-10-(6-(3-((1-Methyl-1H-indol-3-yl)methylene)-2-oxoindolin-1-yl)hexyl)acridin-9(10H)-one], for which, in assay [1] (setting [4]), the IC50 turned out to be 53 µM. Besides, in assay [2], half-maximal inhibition (IC50) required 0.15 µM and the “SI (IC50(COX-1)/IC50 (COX-2)” value was 350.
Take `COc1cc(/C=C2\C(=O)N(CCCn3c4ccccc4c(=O)c4ccccc43)c3ccccc32)cc(OC)c1O` [Compound 10, (Z)-10-(3-(3-(4-Hydroxy-3,5-dimethoxybenzylidene)-2-oxoindolin-1-yl)propyl)acridin-9(10H)-one]: the IC50 was more than 100 µM in assay [1] (setting [4]) and 12 µM in assay [2]. In assay [2], the “SI (IC50(COX-1)/IC50 (COX-2)” value is given as more than 8.
In the case of `COc1cc(/C=C2\C(=O)N(CCCCCCn3c4ccccc4c(=O)c4ccccc43)c3ccccc32)cc(OC)c1O` [Compound 8, (Z)-10-(6-(3-(4-Hydroxy-3,5-dimethoxybenzylidene)-2-oxoindolin-1-yl)hexyl)acridin-9(10H)-one], the IC50 in assay [1] (setting [4]) came to 48 µM. Moreover, in assay [2], the 50% inhibitory concentration (IC50) amounted to 0.12 µM and the “SI (IC50(COX-1)/IC50 (COX-2)” value came out at 400.
For the compound `Cn1cc(/C=C2\C(=O)N(CCCCCn3c4ccccc4c(=O)c4ccccc43)c3ccccc32)c2ccccc21` [Compound 6, (Z)-10-(5-(3-((1-Methyl-1H-indol-3-yl)methylene)-2-oxoindolin-1-yl)pentyl)acridin-9(10H)-one], the IC50 is 60 µM in assay [1] (setting [4]) and 0.35 µM in assay [2]. In assay [2], the “SI (IC50(COX-1)/IC50 (COX-2)” value was 160.
As to `Cn1cc(/C=C2\C(=O)N(CCCn3c4ccccc4c(=O)c4ccccc43)c3ccccc32)c2ccccc21` [Compound 7, (Z)-10-(3-(3-((1-methyl-1H-indol-3-yl)methylene)-2-oxoindolin-1-yl)propyl)acridin-9(10H)-one], the results for the IC50 in assay [1] (setting [4]) and in assay [2] were more than 100 µM and 22 µM, respectively. Moreover, the “SI (IC50(COX-1)/IC50 (COX-2)” value in assay [2] is reported as more than 4.5.
In turn, `O=Cc1cn(CCCCCCn2c3ccccc3c(=O)c3ccccc32)c2ccccc12` [Compound 15d, 1-(6-(9-Oxoacridin-10(9H)-yl)hexyl)-1H-indole-3-carbaldehyde] showed an IC50 in assay [1] of more than 100 µM. Besides, in assay [2], the IC50 was found to be 23.5 µM and the “SI (IC50(COX-1)/IC50 (COX-2)” value is more than 4. For the same compound, the “decrease in fluorescence intensity (quenching) in the presence of COX-2” value in assay [3] is reported as “Small decrease; also recorded: much less”.
For `O=C1NC(=O)C(=Cc2cn(CCCCCn3c4ccccc4c(=O)c4ccccc43)c3ccccc23)C(=O)N1` [Compound 2, 5-((1-(5-(9-Oxoacridin-10(9H)-yl)pentyl)-1H-indol-3-yl)methylene)pyrimidine-2,4,6(1H, 3H, 5H)-trione], the 50% inhibitory concentration (IC50) in assay [1] was determined as 40 µM; in assay [2], 0.1 µM. The “SI (IC50(COX-1)/IC50 (COX-2)” value in assay [2] turned out to be 400.
`CN1C(=O)C(=Cc2cn(CCCCCCn3c4ccccc4c(=O)c4ccccc43)c3ccccc23)C(=O)N(C)C1=O` [Compound 4]: the concentration for half-maximal inhibition (IC50) turned out to be 33 µM in assay [1] and 2.15 µM in assay [2]. In addition, the “SI (IC50(COX-1)/IC50 (COX-2)” value in assay [2] was determined as 15.
